# Assay results as given in US7312179B2, “Cyclopropyl-thienyl-carboxamide as fungicides” (Syngenta Crop Protection, Inc., priority 2002, dated 2007).
smiles,measurement,value
"Cn1cc(C(=O)Nc2ccsc2C2CC2C2CC2)c(C(F)F)n1 (stereo not shown) [Compound 4.34, 3-difluoromethyl-1-methyl-1H-pyrazole-4-carboxylic acid (2-bicyclo-propyl-2-yl-thiophen-3-yl)amide]",melting point,76 to 79 °C
